Several values for one entry are separate records, joined by “and”; a condition that tells them apart may be missing. Equal values may be shown once.
Experiments:
Conditions in all cases: incubation time: 72 h
[1] = system: BT-474; test: normalised viability (% of control), CellTiter-Blue; higher = more viable cells (100 = DMSO, 0 = benzethonium chloride kill control)
Experimental: (§1)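 DSRT, CellTiter-Blue viability, 72 h incubation. Signal is normalised to DMSO and benzethonium chloride controls. Value is the normalised response at dose 1.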

[2] = system: BT-549; test: as above
Experimental: as §1

[3] = system: CAL-120; test: as above
Experimental: as §1

[4] = system: CAL-148; test: as above
Experimental: as §1

[5] = system: CAL-51; test: as above
Experimental: as §1

[6] = system: CAL-85-1; test: as above
Experimental: as §1

[7] = system: DU-4475; test: as above
Experimental: as §1

[8] = system: HCC1143; test: as above
Experimental: as §1

[9] = system: HCC1599; test: as above
Experimental: as §1

[10] = system: HCC1937; test: as above
Experimental: as §1

[11] = system: HDQ-P1; test: as above
Experimental: as §1

[12] = system: Hs578T; test: as above
Experimental: as §1

[13] = system: MDA-MB-231; test: as above
Experimental: as §1

[14] = system: MDA-MB-436; test: as above
Experimental: as §1

[15] = system: MDA-MB-453; test: as above
Experimental: as §1

[16] = system: MDA-MB-468; test: as above
Experimental: as §1

[17] = system: MFM-223; test: as above
Experimental: as §1

[18] = system: SK-BR-3; test: as above
Experimental: as §1

[19] = system: BT-474; test: normalised response (% of control), CellTiter-Glo; higher = more viable cells (100 = DMSO, 0 = benzethonium chloride kill control)
How it was run: (§2)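 For each plate, 0.1 % DMSO was set to 100 and a positive kill control to 0. Breast cancer cell lines (20 µl suspension) were seeded into 384-well plates already holding compound at 5 concentrations in 10-fold steps over a 10,000-fold range chosen per compound, and incubated for 72 h. CellTox Green fluorescence at 485/520 nm was read before CellTiter-Glo luminescence, which followed 10 min at room temperature. Each value is the normalised signal at one concentration.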

[20] = system: BT-549; test: as above
How it was run: as §2

[21] = system: CAL-120; test: as above
How it was run: as §2

[22] = system: CAL-148; test: as above
How it was run: as §2

[23] = system: CAL-51; test: as above
How it was run: as §2

[24] = system: CAL-85-1; test: as above
How it was run: as §2

[25] = system: DU-4475; test: as above
How it was run: as §2

[26] = system: HCC1143; test: as above
How it was run: as §2

[27] = system: HCC1599; test: as above
How it was run: as §2

[28] = system: HCC1937; test: as above
How it was run: as §2

[29] = system: HDQ-P1; test: as above
How it was run: as §2

[30] = system: Hs578T; test: as above
How it was run: as §2

[31] = system: MCF-10A; test: as above
How it was run: as §2

[32] = system: MDA-MB-231; test: as above
How it was run: as §2

[33] = system: MDA-MB-436; test: as above
How it was run: as §2

[34] = system: MDA-MB-453; test: as above
How it was run: as §2

[35] = system: MDA-MB-468; test: as above
How it was run: as §2

[36] = system: MFM-223; test: as above
How it was run: as §2

[37] = system: SK-BR-3; test: as above
How it was run: as §2

| Structure (SMILES) | normalised viability [1] | normalised viability [2] | normalised viability [3] | normalised viability [4] | normalised viability [5] | normalised viability [6] | normalised viability [7] | normalised viability [8] | normalised viability [9] | normalised viability [10] | normalised viability [11] [%] | normalised viability [12] | normalised viability [13] | normalised viability [14] | normalised viability [15] | normalised viability [16] | normalised viability [17] | normalised viability [18] | normalised response [19] [%] | normalised response [20] [%] | normalised response [21] [%] | normalised response [22] [%] | normalised response [23] [%] | normalised response [24] [%] | normalised response [25] [%] | normalised response [26] [%] | normalised response [27] [%] | normalised response [28] [%] | normalised response [29] [%] | normalised response [30] [%] | normalised response [31] [%] | normalised response [32] [%] | normalised response [33] [%] | normalised response [34] [%] | normalised response [35] [%] | normalised response [36] [%] | normalised response [37] [%] |
| --- | --- | --- | --- | --- | --- | --- | --- | --- | --- | --- | --- | --- | --- | --- | --- | --- | --- | --- | --- | --- | --- | --- | --- | --- | --- | --- | --- | --- | --- | --- | --- | --- | --- | --- | --- | --- | --- |
| CC(=O)c1c(C)c2cnc(Nc3ccc(N4CCNCC4)cn3)nc2n(C2CCCC2)c1=O (1 nM) | 108% | 102% | 87.1% | 107% | 104% | 87.9% | 99% | 100% | 105% | 94.7% | 79.2 | 89.5% | 94.6% | 94.1% | 106% | 109% | 88.5% | 93.1% |  |  |  |  |  |  |  |  |  |  |  |  |  |  |  |  |  |  |  |
| COc1cc2c(cc1O)CC[C@@H]1[C@@H]2CC[C@]2(C)[C@@H](O)CC[C@@H]12 [2-methoxyestradiol] (1 nM) | 102% | 96.4% | 92.1% | 102% | 112% | 91.6% | 107% | 88.9% | 101% | 87.5% | 97.1 | 105% | 88.8% | 115% | 95.5% | 103% | 102% | 89.3% | 96.7 | 103 | 94.9 | 97.3 | 122 | 102 | 99 | 97.8 | 104 | 98.8 | 97.1 | 106 | 92.5 | 104 | 101 | 106 | 104 | 95.9 | 87.2 |
| Cc1sc2c(c1C)C(c1ccc(Cl)cc1)=N[C@@H](CC(=O)OC(C)(C)C)c1nnc(C)n1-2 [(+)JQ1] (1 nM) | 114% | 104% | 90.3% | 108% | 97.5% | 87.4% | 110% | 126% | 113% | 97.4% | 90.9 | 114% | 114% | 139% | 177% | 104% | 102% | 107% | 107 | 103 | 98.5 | 113 | 85 | 97.2 | 106 | 103 | 96.6 | 95.8 | 101 | 98.1 | 105 | 106 | 127 | 126 | 103 | 104 | 111 |
| Oc1ncnc2[nH]ncc12 [Allopurinol] (1 nM) | 97.2% | 92.2% | 111% | 119% | 92.5% | 112% | 109% | 106% | 91.2% | 78.6% | 108 | 95.6% | 93.5% | 102% | 116% | 109% | 96.2% | 91.7% | 101 | 106 | 100 | 100 | 95.1 | 99.3 | 102 | 108 | 101 | 98.2 | 101 | 103 | 108 | 101 | 99.9 | 113 | 109 | 105 | 117 |
| O=C1CN2Cc3c(ccc(Cl)c3Cl)N=C2N1 [Anagrelide] (1 nM) | 122% | 113% | 84.6% | 103% | 105% | 88.7% | 109% | 90.1% | 87.8% | 68.3% | 112 | 119% | 102% | 80.8% | 105% | 101% | 98.9% | 96.1% | 90.6 | 101 | 92.8 | 90.2 | 110 | 99.5 | 102 | 100 | 105 | 97.1 | 110 | 100 | 94 | 97.2 | 86 | 109 | 103 | 98.8 | 104 |
| Nc1ncn([C@@H]2O[C@H](CO)[C@@H](O)[C@H]2O)c(=O)n1 [Azacitidine] (1 nM) | 89.5% | 93.7% | 84.4% | 92% | 102% | 94.9% | 109% | 89.3% | 89.1% | 85% | 99.9 | 105% | 89.3% | 108% | 102% | 95.5% | 95.5% | 94.6% | 97.1 | 96.5 | 95.9 | 96.1 | 129 | 103 | 102 | 95.4 | 96.8 | 94 | 98.7 | 98.7 | 101 | 101 | 102 | 112 | 100 | 104 | 105 |
| CC(=O)O[C@@]12CO[C@@H]1C[C@H](O)[C@@]1(C)C(=O)[C@H](O)C3=C(C)[C@@H](OC(=O)[C@H](O)[C@@H](NC(=O)OC(C)(C)C)c4ccccc4)C[C@@](O)([C@@H](OC(=O)c4ccccc4)[C@H]21)C3(C)C [Docetaxel] (0.1 nM) | 104% and 90.1% | 92.9% and 96.3% | 96.5% and 94.7% | 107% and 110% | 104% and 92.1% | 101% and 106% | 109% and 110% | 107% and 111% | 119% and 123% | 81.5% and 83.6% |  | 99.7% and 96.5% | 110% and 94.6% | 91.9% and 106% | 118% and 98.6% | 96.8% and 100% | 100% and 102% | 103% and 105% | 98.8 | 104 | 104 | 90.8 | 94.5 | 102 | 96.7 | 96.3 | 101 | 94.5 | 96.2 | 93.2 | 98 | 102 | 105 | 99.7 | 106 | 96.9 | 99.3 |
| C[C@]12CC[C@@H]3c4ccc(OC(=O)N(CCCl)CCCl)cc4CC[C@H]3[C@@H]1CC[C@@H]2O [Estramustine] (0.099 nM) | 93.4% | 92.4% | 111% | 109% | 84% | 108% | 89.9% | 104% | 84.8% | 91.8% | 106 | 94.3% | 93.3% | 106% | 98.9% | 107% | 106% | 114% |  |  |  |  |  |  |  |  |  |  |  |  |  |  |  |  |  |  |  |
| C[C@]1(O)C[C@@H](c2nc(-c3ccc4ccc(-c5ccccc5)nc4c3)c3c(N)nccn32)C1 [OSI-906] (1 nM) | 82.9% | 95.7% | 97.4% | 94.6% | 95.6% | 100% | 89% | 96.8% | 100% | 92.3% | 74.5 | 101% | 83.7% | 85% | 85.7% | 100% | 95.6% | 91.1% |  |  |  |  |  |  |  |  |  |  |  |  |  |  |  |  |  |  |  |
| COc1cc(F)c(F)c(Nc2ccc(I)cc2F)c1NS(=O)(=O)C1(C[C@H](O)CO)CC1 [RDEA119] (1 nM) | 79.7% | 97.3% | 98.7% | 88.7% | 91.8% | 108% | 99.3% | 98.8% | 93% | 80.9% | 79.4 | 95.4% | 77.4% | 104% | 84.5% | 95.8% | 92.5% | 106% |  |  |  |  |  |  |  |  |  |  |  |  |  |  |  |  |  |  |  |

Reference: the supplement of paper PMC4862054
